{
  "source": "patent US6825232B2",
  "about": "“Use of hydroxyeicosatetraenoic acid compounds to treat ophthalmic inflammatory disorders” (Alcon, Inc., priority 2002, dated 2004)",
  "key": {"IL-8": {"system": "IL-8", "settings": "1 μM to 0.1 nM; human bone marrow stromal cells; cited from earlier work"}, "IL-6 [1]": {"system": "IL-6", "settings": "bone marrow stromal cells; cited from earlier work"}, "IL-6 [2]": {"system": "IL-6", "assay": "IL-6 release from IL-1β-stimulated primary human corneal fibroblast cells (ELISA)", "type": "cell-based", "settings": "for % Inhibition of IL-6 (pg/μg dsDNA): 30 min pretreatment, 10 ng/ml IL-1β for 3 hours, normalized to dsDNA", "experimental": "Primary human corneal fibroblast cells were obtained from one donor and grown to confluence in Ham's F-10 medium. Fibroblasts were transferred to serum-free media and were pretreated for 30 minutes with various concentrations of 15(S)-HETE. The cells were then stimulated with 10 ng/ml IL-1β for 3 hours and aliquots of the supernatants were assayed for IL-6 by ELISA. Data were normalized by the amount of double stranded DNA (dsDNA) extracted from the cells."}},
  "note": "Marks after values point to notes of the source that are not given here.",
  "data": [
    {"smiles": "CCCCC[C@H](O)/C=C/C=C\\C/C=C\\C/C=C\\CCCC(=O)O", "note": "[15(S)-HETE, 15-Hydroxyeicosatetraenoic acid]", "values": [
      {"measurement": "effect on the spontaneous and serum-induced production of IL-8", "setting": "IL-8", "result": "no effect"},
      {"measurement": "effect on the spontaneous, serum- and cytokine-induced IL-6 synthesis", "setting": "IL-6 [1]", "result": "no effect"},
      {"measurement": "% Inhibition of IL-6 (pg/μg dsDNA)", "setting": "IL-6 [2]; 15(S)-HETE 0.5 μg", "result": 53.1, "unit": "%"},
      {"measurement": "% Inhibition of IL-6 (pg/μg dsDNA)", "setting": "IL-6 [2]; 15(S)-HETE 1 μg", "result": "67.9* %"},
      {"measurement": "% Inhibition of IL-6 (pg/μg dsDNA)", "setting": "IL-6 [2]; 15(S)-HETE 2 μg", "result": "88.6** %"},
      {"measurement": "% Inhibition of IL-6 (pg/μg dsDNA)", "setting": "IL-6 [2]; 15(S)-HETE 3 μg", "result": "90.4** %"},
      {"measurement": "IC50", "setting": "IL-6 [2]; primary human corneal fibroblast cells, IL-1β stimulated, read-out: IC50 for IL-6 inhibition", "result": "< 500", "unit": "nM"}
    ]}
  ]
}
